Experimental data published in patent publication US20010036944A1, “Certain benzothiazine dioxide endothelin antagonists and processes for their preparation” (priority 1997, published 2001).
Structures can show the parent of a compound that is named as a salt.

Tests used:
[1] = biological target: T1, recombinant human ETAR (HETA) (Homo sapiens, UniProt P25101); test: Radioligand binding, [125I]ET-1 to membranes of Ltk- cells expressing recombinant human ETAR (HETA); details: [125I]ET-1 binding, human ETA, Ltk- cell membranes; read-out: HETA (IC50)
T1 construct: expressed in transfected cells; host or cells: Ltk- cells (membrane preparation)
T1 sequence (P25101 21-427): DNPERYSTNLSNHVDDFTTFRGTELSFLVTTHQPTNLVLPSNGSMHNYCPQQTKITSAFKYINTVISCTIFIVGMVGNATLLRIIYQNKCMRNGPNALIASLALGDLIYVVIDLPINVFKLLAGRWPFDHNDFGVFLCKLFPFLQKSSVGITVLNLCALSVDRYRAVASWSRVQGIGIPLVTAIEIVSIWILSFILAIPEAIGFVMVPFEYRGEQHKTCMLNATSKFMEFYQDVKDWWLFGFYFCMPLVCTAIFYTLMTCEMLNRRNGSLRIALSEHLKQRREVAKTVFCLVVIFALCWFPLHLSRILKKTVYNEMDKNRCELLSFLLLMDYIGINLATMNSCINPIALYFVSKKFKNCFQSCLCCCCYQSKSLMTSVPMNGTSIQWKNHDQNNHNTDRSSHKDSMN
Protocol: (§1) The following cultured cells were used in binding experiments: Ltk-cells expressing recombinant human ETAR (HETA), and CHOKI cells expressing recombinant human ETBR (HETB).
(§2) Membranes were prepared from cultured cells by lysing cells in cold lysis buffer (5 mM HEPES, 2 mM EDTA, pH 7.4) and homogenizing with a Dounce “A” homogenizer. The homogenate was centrifuged at 30,000×g for 20 minutes at […]. Membrane pellets were suspended in cold buffer containing 20 mM Tris, 2 mM EDTA, 200 μM Pefabloc, 10 μM phosphoramidon, 10 μM leupeptin, 1 μM pepstatin at pH 7.4 and frozen at […] until use. Membranes were thawed and homogenized with a Brinkmann Polytron then diluted in tissue buffer containing 20 mM Tris, 2 mM EDTA, 200 μM Pefabloc, and 100 μM bacitracin (pH 7.4). Radioligand and competing ligands were prepared in binding buffer containing 20 mM Tris, 2 mM EDTA, and 0.1% BSA.
(§3) The assay was terminated by filtration over Whatman GF/B filters which were presoaked with 50 mM Tris, pH 7.4 containing 0.2% BSA and 100 μM bacitracin. Nonspecific binding was defined as binding in the presence of 100 nM ET-1.

[2] = biological target: T2, recombinant human ETBR (HETB) (Homo sapiens, UniProt P24530); test: Radioligand binding, [125I]ET-1 to membranes of CHOKI cells expressing recombinant human ETBR (HETB); details: [125I]ET-1 binding, human ETB, CHOKI cell membranes
T2 construct: expressed in transfected cells; host or cells: CHOKI (CHO-K1) cells (membrane preparation)
T2 sequence (P24530 27-442): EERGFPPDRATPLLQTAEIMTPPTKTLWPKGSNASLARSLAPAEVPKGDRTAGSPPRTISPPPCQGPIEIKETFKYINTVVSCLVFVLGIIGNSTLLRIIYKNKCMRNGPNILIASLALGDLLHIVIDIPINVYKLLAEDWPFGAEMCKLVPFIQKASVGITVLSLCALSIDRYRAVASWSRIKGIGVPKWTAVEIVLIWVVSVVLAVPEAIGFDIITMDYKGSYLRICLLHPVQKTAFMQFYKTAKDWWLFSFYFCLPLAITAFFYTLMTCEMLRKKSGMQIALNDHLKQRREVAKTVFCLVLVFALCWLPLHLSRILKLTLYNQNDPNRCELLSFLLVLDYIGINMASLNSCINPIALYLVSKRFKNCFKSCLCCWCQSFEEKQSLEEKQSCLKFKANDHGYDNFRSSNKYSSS
Protocol: as §1, §2, §3

[3] = tested on: ETA, rabbit femoral artery; test: Antagonism of ET-1 stimulated vasoconstriction (VERAA) in the rabbit femoral artery (ETA); details: ET-1 stimulated vasoconstriction, rabbit femoral artery
Text: In Vitro Antagonism of ET-1 Stimulated Vasoconstriction (VERAA) in the Rabbit Femoral Arterv (ETA) and Sarafotoxin 6C Stimulated Vasoconstriction in the Rabbit Pulmonarv Artery (ETB)
Male New Zealand rabbits were killed by cervical dislocation and exsanguination. Femoral and pulmonary arteries were isolated, cleaned of connective tissue, and cut into 4mm rings. The endothelium was denuded by placing the rings over hypodermic tubing (32 gauge for femoral rings and 28 gauge for pulmonary rings, Small Parts, Inc., Miami, Fla.) and gently rolling them. Denuded rings were mounted in 20 mL organ baths containing Krebsbicarbonate buffer (composition in mM: NaCl, 118.2; NaHCO3, 24.8; KCl, 4.6; MgSO4 7H2O, 1.2; KH2PO4, 1.2; CaCl2 2H2O; CaNa2 EDTA, 0.026;, dextrose, 10.0), that was maintained at 37° C. and gassed continuously with 5% CO2 in oxygen (pH 7.4). Resting tension was adjusted to 3.0 g for femoral and 4.0 g pulmonary arteries; the rings were left for 90 minutes to equilibrate. Vascular rings were tested for lack of functional endothelium (ie, lack of an endotheliumdependent relaxation response to carbachol ([…]) in norepinephrine ([…]) contracted rings. Agonist peptides, ET-1 -(femoral), and S6c (pulmonary), were cumulatively added at 10-minute intervals. The ET antagonists were added 30 minutes prior to adding the agonist.

Compound	IC50 [1] [nM]	IC50 [2] [nM]	VERAA (pA2) [3]
4-(3,5-Dimethyl-phenyl)-2-(2-trifluoro-methyl-phenyl)-1,1-dioxo-1,2dihydro-1λ^6-benzo[e][1,2]thiazine-3-carboxylic acid [Example 31]	6	> 2500	5.7
4-(6-Methoxybenzo[1,3]dioxol-5-yl)-1,1-dioxo-2-(2-trifluoro-methyl-phenyl)-1,2-dihydro-1λ^6-benzo[e]r [1,2]thiazine-3-carboxylic acid [Example 30]	95	> 2500	
COc1cc(OC)cc(C2=C(C(=O)O)N(c3ccccc3C(F)(F)F)S(=O)(=O)c3ccccc32)c1 [Example 1, 4-(3,5-Dimethoxyphenyl)2-(2-trifluoromethyl-phenyl)-1,1-dioxo-1,2-dihydro-1λ^6-benzo[e][1,2]thiazine-3-carboxylic acid]	3	> 2500	6.6
COc1cc(OC)cc(C2=C(C(=O)O)N(c3ccccc3Cl)S(=O)(=O)c3ccccc32)c1 [Example 2]	2	7300	6.6
COc1cc(OC)cc(C2=C(C(=O)O)N(c3ccccc3Br)S(=O)(=O)c3ccccc32)c1 [Example 3, 2-(2-Bromophenyl)-4-(3,5-dimethoxy-phenyl)-1,1-dioxo-1,2-dihydro-1 λ^6-benzo[e][1,2]thiazine-3-carboxylic acid]	3	> 2500	
COc1cc(C2=C(C(=O)O)N(c3ccccc3Cl)S(=O)(=O)c3ccccc32)cc2c1OCO2 [Example 4, 2-(2-Chloro-phenyl)-4-(7-methoxy-benzo[1,3]dioxol-5-yl)-1,1-dioxo-1,2-dihydro-1λ^6-benzo[e][1,2]-thiazine-3-carboxylic acid]	3	5600	
COc1cc(C2=C(C(=O)O)N(c3ccccc3Cc3ccccc3)S(=O)(=O)c3ccccc32)cc2c1OCO2 [Example 5, 2-(2-Benzylphenyl)4-(7-methoxy-benzo[1,3]dioxo-5-yl)-1,1-dioxo-1,2-dihydro-1λ^6-benzo[e][1,2]thiazine-3-carboxylic acid]	4	2000	
COc1cc(C2=C(C(=O)[O-])N(c3c(C)cccc3C)S(=O)(=O)c3ccccc32)cc2c1OCO2.[Na+] [Example 6, 2-(2,6-Dimeth Iphenyl)4-(7-methoxy-benzo-[1,3]dioxol-5vl)-1,1 dioxo 1,2dihydro 1λ^6-benzo[e][1,2]thiazine-3-carboxylic acid monosodium salt]	4	> 2500	7.1
COc1cc(C2=C(C(=O)O)N(c3ccccc3C)S(=O)(=O)c3ccccc32)cc2c1OCO2 [Example 8, 4-(7-Methoxy-benzo[1,3]dioxol-5-yl)-1,1-dioxo-2o-tolyl-1,2-dihydro-1,6-benzo[e][1,2]-thiazine-3-carboxylic acid]	8	3900	6.5
COc1cc(C2=C(C(=O)O)N(c3ccccc3Br)S(=O)(=O)c3ccccc32)cc2c1OCO2 [Example 9, 2-(2-Bromo-phenyl)4-(7-methoxy-benzo[1,3]-dioxol-5-yl)-1,1 dioxo 1,2-dihydro-1λ^6-benzo[e][1,2]-thiazine-3-carboxylic acid monosodium salt]	2	> 2500	6.9
CCc1ccccc1N1C(C(=O)O)=C(c2ccc3c(c2)OCO3)c2ccccc2S1(=O)=O [Example 13, 4-Benzo [1,3]dioxol-5-yl-2-(2ethyl-phenyl)-1,1-dioxo-1,2-dihydro-1λ^6-benzo[e][1,2]thiazine-3-carboxylic acid]	23	> 2500	

Continued, in another order:

IC50 [1] [nM]	IC50 [2] [nM]	Compound	VERAA (pA2) [3]
90	11000	CC(C)c1ccccc1N1C(C(=O)O)=C(c2ccc3c(c2)OCO3)c2ccccc2S1(=O)=O [Example 15, 4-Benzo[1,3]dioxol-5-yl-2-(2isopropylphenyl)-1,1-dioxo 1,2-dihydro 1λ^6-benzo[e][1,2]thiazine-3-carboxylic acid]	
26	> 2500	CCCCc1ccccc1N1C(C(=O)O)=C(c2ccc3c(c2)OCO3)c2ccccc2S1(=O)=O [Example 16, 4-Benzo[1,3]dioxol-5-yl-2-(2butylphenyl)-1,1-dioxo-1,2-dihydro-1λ^6-benzo[e][1,2]thiazine-3-carboxylic acid]	
110	> 25000	O=C(O)C1=C(c2ccc3c(c2)OCO3)c2ccccc2S(=O)(=O)N1c1ccccc1F [Example 19, 4-Benzo-[1,3]dioxol-5-yl-2-(2-fluorohenyl)-1,1-dioxo-1,2dihydro-1λ^6-benzo[e]rl[2]thiazine-3-carboxylic acid]	
30	13000	O=C(O)C1=C(c2ccc3c(c2)OCO3)c2ccccc2S(=O)(=O)N1c1cccc(Cl)c1Cl [Example 21, 4-Benzo-[1,3]dioxol-5-yl-2-(2,3-dichlorophenyl)1,1-dioxo-1,2dihydro1λ^6-benzo [e][1,2]thiazine-3-carboxylic acid]	
50	13000	O=C(O)C1=C(c2ccc3c(c2)OCO3)c2ccccc2S(=O)(=O)N1c1ccc(Cl)cc1Cl [Example 22]	
21	6200	COc1ccc(N2C(C(=O)O)=C(c3ccc4c(c3)OCO4)c3ccccc3S2(=O)=O)c(Cl)c1 [Example 23, 4-Benzo[1,3]dioxol-5-yl-2-(2-chloro-4-methoxyphenyl)-1,1-dioxo-1,2-dihydro-1λ^6-benzo[e][1,2]thiazine-3-carboxylic acid]	
30	17000	Cc1c(Cl)cccc1N1C(C(=O)O)=C(c2ccc3c(c2)OCO3)c2ccccc2S1(=O)=O [Example 24]	
17	> 25000	Cc1cccc(C)c1N1C(C(=O)O)=C(c2ccc3c(c2)OCO3)c2ccccc2S1(=O)=O [Example 26, 4-Benzo[1,3]dioxol-5-yl-2-(2,6dimethyl-phenyl)-1,1-dioxo-1,2dihydro-1λ^6-benzo[e][1,2]thiazine-3-carboxylic acid]	
40	19000	O=C(O)C1=C(c2ccc3c(c2)OCO3)c2ccccc2S(=O)(=O)N1c1ccccc1-n1cccc1 [Example 27, 4-Benzo[1,3]dioxol-5-yl-1,1-dioxo-2-(2-2-pyrrol-1-ylphenyl)-1,2-dihydro-1λ^6-benzo[e][12]thiazine-3-carboxylic acid]	
90	> 25000	Cc1noc(N2C(C(=O)O)=C(c3ccc4c(c3)OCO4)c3ccccc3S2(=O)=O)c1C [Example 28]	
40	> 2500	O=C(O)C1=C(c2ccc3c(c2)OCO3)c2ccccc2S(=O)(=O)N1c1ccccc1Cc1ccccc1 [Example 29, 4-Benzo[1,3]dioxol-5-yl-2-(2benzylphenyl)-1,1-dioxo-1,2-dihydro-1λ^6-benzo[e][1,2]thiazine-3-carboxylic acid]	
